From patent EP0201988A2, “Dihydropyridazinone derivatives” (SMITH KLINE & FRENCH LABORATORIES LIMITED, priority 1985, dated 1986)

Assays:
[1] = test system: anaesthetised cats; test: Cardiac stimulant activity in vivo (anaesthetised cats); conditions: anaesthetised cats pretreated with pempidine and propranolol, administered intravenously; for ED50: Felis catus, iv, read-out: ED50 (dose to increase left ventricular dp/dt max by 50%)
[2] = target: PDE (Peak III); test: Inhibition of phosphodiesterases, PDE (Peak III) enzyme assay; assay type: biochemical; conditions: PDE (Peak III) from cat heart, 1 µM cyclic AMP
Experimental: Sepharose is a registered trademark of Pharmacia Fine Chemicals Inc. The high-speed supernatant from a cat heart homogenate (2 g tissue in 20 ml 20 mM PiPES - (Piperazine-N-N'-bis[2-ethanesulfonic acid]), 50 mM Na acetate, pH 6.5) was applied to a 15 ^x 1.5 cm column of DEAE-Sepharose equilibrated with the homogenisation buffer. The PDE activities were eluted with a gradient of 0.05-1 M Na acetate in 20 mM PIPES.
The enzyme was assayed by incubation at 37° for 4-30 min in 50 mM Tris, 5 mM MgCl2, pH 7.5 with [3-H] cyclic nucleotide (4 ^x 10^5 disintegrations min-') and [14-C] nucleotide 5' monophosphate (3 ^x 10^3 disintegrations min^-1). The assay was stopped by boiling, and the [3-H] […] The reaction mixture was diluted with 0.5 ml 100 mM HEPES (N-2-Hydroxyethylpiperazine-N'-2-ethanesulfonic acid), 100 mM NaCl, pH 8.5, and applied to the column. The column was extensively washed with the same buffer, and the 5' nucleotide eluted with 6 ml 025 M acetic acid.

[3] = test system: ventricular strips; test: Cardiac stimulant activity in vitro (electrically stimulated ventricular strips); assay type: cell-based, Guinea pigs; conditions: Cavia porcellus; guinea pig right ventricle strips, stimulated at 1.0 Hz, Krebs Henseleit solution at 37°C, concentration in the bathing fluid; read-out: EC50 (50% increase in the force of contraction of the ventricular strips)
Experimental: The compounds of formula (I) and their pharmaceutically acceptable salts are tested for cardiac stimulant activity following a procedure based on that of S.C. Verma and J. H. McNeill (J.Pharm & Exp. Therapeutics, 200, 352-362 (1977)). Guinea pigs (500-700 g) of either sex are sacrificed and the hearts are quickly removed and transferred to a dissecting dish containing oxygenated bathing fluid. While in the bathing medium, the right ventricle is cut into two strips. The strips are each suspended in a 50 ml bath containing Krebs Henseleit solution at 37°C, and the bath is bubbled with 95% oxygen and 5% carbon dioxide. The ventricular strips are electrically stimulated at a frequency of 1.0 Hz, at double the threshold voltage. A resting tension of 1.0 g is applied to the strips and the tension is kept constant by readjustment during an equilibration period of 60 minutes. The bathing fluid is frequently changed during this period. When a steady base line is obtained, a compound under test is added to the bathing fluid and a cumulative concentration response curve is plotted.

EC50 [3]	SMILES	ED50 [1]	duration of activity [1]	IC50 [2]
14 µM	CC1CC(=O)NN=C1c1ccc(NC2=NC(=O)CN2)cc1 (centres unmarked) [Example 1, 6-[4-(4-Oxo-2-imidazolin-2-ylamino)phenyl]-5-methyl-4,5-dihydro-3(2H)-pyridazinone]	0.4 µmol/kg	long duration of activity	1.84 µM
–	Cc1[nH]c(=O)c(C#N)cc1-c1ccncc1 (single isomer, unassigned) [Milrinone]	–	–	2.2 µM
–	Nc1cc(-c2ccncc2)c[nH]c1=O [Amrinone]	5.6 µmol/kg	short duration of activity	51.8 µM
